Earlier results as cited in paper PMC12385607 (ACS medicinal chemistry letters, 2025).

Legend:
[1] = orally available 2-PMPA prodrugs
[2] = 30 min post-oral administration

Cc1oc(=O)oc1COC(=O)CCC(CP(=O)(OCc1oc(=O)oc1C)OCc1oc(=O)oc1C)C(=O)OCc1oc(=O)oc1C (stereo not drawn) [tetra-ODOL-2-PMPA]
Brain distribution of 2-PMPA (in words) [1]: limited brain distribution

O=C(O)CCC(CP(=O)(O)O)C(=O)O (stereo not drawn) [2-PMPA, 2-(phosphonomethyl)pentanedioic acid]
Plasma concentration of 2-PMPA after oral administration of 2-PMPA itself [2]: ~ 250 nM | Clearance from plasma after intravenous administration (in words): quickly cleared from the plasma
